# From patent publication US6653486B2, “Spiroorthocarbonates containing epoxy groups” (Curators of the University of Missouri, priority 1999, dated 2003)
# Experiments:
# [1] = Vinyl ether homopolymerization PDSC with and without EDMAB (Table 2)
# Excerpt: For the experiments reported in Table 2, the photopolymerization of various vinyl ethers with and without the use of an electron donor to promote the reaction are reported. Data showing runs where EDMAB was used to promote the reaction are shown in parentheses after the numbers corresponding to runs without EDMAB.
melting point,Compound,Rate Constant k ([1]; with EDMAB),Rate Constant k ([1]; without EDMAB)
122.4 °C,"FC(F)(F)C1CCOC2(OCCC(C(F)(F)F)O2)O1 (stereo not shown) [DTFM, 2,8-Ditrifluoromethyl-1,5,7,11-tetraoxaspiro[5.5]undecane]",,
,hexanediol divinyl ether [HDDVE],15.5 min⁻¹,1.4 min⁻¹
68.1 °C,"CCC(=O)OCC1(CC)COC2(OC1)OCC(CC)(COC(=O)CC)CO2 (stereo not shown) [DEDPM, 3,9-Diethyl-3,9-dipropionyloxymethyl-1,5,7,11-tetraoxaspiro[5.5]undecane]",,
,"C=COCCCCO [BDVE, butanediol vinyl ether]",3.6 min⁻¹,1.1 min⁻¹
,"C=COCCOCCOC=C [DEGDVE, di(ethylene glycol)divinyl ether]",1.4 min⁻¹,1.3 min⁻¹
,"C=COCCOC=C [EGDVE, ethylene glycol divinyl ether]",10.6 min⁻¹,3.6 min⁻¹
,"C=COCC1CCC(COC=C)CC1 (stereo not shown) [CHDMDVE, 1,4-cyclohexanedimethanol divinyl ether]",2.8 min⁻¹,0.5 min⁻¹
,"C=COCC1CO1 (stereo not shown) [GVE, glycidyl vinyl ether]",0.8 min⁻¹,1.1 min⁻¹
,"C=COCCOCCOCCOC=C [TEGDVE, tri(ethylene glycol)divinyl ether]",11.1 min⁻¹,2.1 min⁻¹
